# Data taken from patent US7141583B2, “Oxazolidinone derivatives with antibiotic activity” (AstraZeneca AB, priority 2000, dated 2006).
# Key:
# [1] = test system: Staphylococcus aureus Novb. Res (Novobiocin resistant); assay: MIC by agar-dilution, Staphylococcus aureus Novb. Res; type: cell-based; details: 37° C., 24 hours
# Protocol: (§1) The following results were obtained on a standard in-vitro test system. The activity is described in terms of the minimum inhibitory concentration (MIC) determined by the agar-dilution technique with an inoculum size of 10^4 CFU/spot. Typically, compounds are active in the range 0.01 to 256 μg/ml.
# (§2) Staphylococci were tested on agar, using an inoculum of 10^4 CFU/spot and an incubation temperature of 37° C. for 24 hours—standard test conditions for the expression of methicillin resistance.
# [2] = test system: Coagulase Negative Staphylococci MS (methicillin sensitive); assay: MIC by agar-dilution, Coagulase Negative Staphylococci MS; type: cell-based; details: 37° C., 24 hours
# Protocol: as §1, §2
# [3] = test system: Streptococcus pyogenes C203; assay: MIC by agar-dilution, Streptococcus pyogenes C203; type: cell-based; details: agar with 5% defibrinated horse blood, 5% carbon dioxide, 48 hours
# Protocol: (§3) The following results were obtained on a standard in-vitro test system. The activity is described in terms of the minimum inhibitory concentration (MIC) determined by the agar-dilution technique with an inoculum size of 10^4 CFU/spot. Typically, compounds are active in the range 0.01 to 256 μg/ml. Streptococci and enterococci were tested on agar supplemented with 5% defibrinated horse blood, an inoculum of 10^4 CFU/spot and an incubation temperature of 37° C. in an atmosphere of 5% carbon dioxide for 48 hours—blood is required for the growth of some of the test organisms. Fastidious Gram negative organisms were tested in Mueller-Hinton broth, supplemented with hemin and NAD, grown aerobically for 24 hours at 37° C., and with an innoculum of 5×10^4 CFU/well.
# Bacillus subtilis = assay: MIC by agar-dilution, Bacillus subtilis; type: cell-based
# Protocol: as §1
# [4] = test system: Coagulase Negative Staphylococci MR (methicillin resistant); assay: MIC by agar-dilution, Coagulase Negative Staphylococci MR; type: cell-based; details: 37° C., 24 hours
# Protocol: as §1, §2
# [5] = test system: Haemophilus influenzae ARC446; assay: MIC, Haemophilus influenzae ARC446 (Mueller-Hinton broth); type: cell-based; details: Mueller-Hinton broth with hemin and NAD, 24 hours, 37° C.
# Protocol: as §3
# Enterococcus faecalis = assay: MIC by agar-dilution, Enterococcus faecalis; type: cell-based; details: agar with 5% defibrinated horse blood, 5% carbon dioxide, 48 hours
# Protocol: as §3
# [6] = test system: Moraxella catarrhalis ARC445; assay: MIC, Moraxella catarrhalis ARC445 (Mueller-Hinton broth); type: cell-based; details: Mueller-Hinton broth with hemin and NAD, 24 hours, 37° C.
# Protocol: as §3
# [7] = test system: Staphylococcus aureus Oxford; assay: MIC by agar-dilution, Staphylococcus aureus Oxford; type: cell-based; details: 37° C., 24 hours
# Protocol: as §1, §2
# [8] = test system: Staphylococcus aureus MRQR (methicillin and quinolone resistant); assay: MIC by agar-dilution, Staphylococcus aureus MRQR; type: cell-based; details: 37° C., 24 hours
# Protocol: as §1, §2
Compound,melting point [°C],MIC [1] [µg/mL],MIC [2] [µg/mL],MIC [3] [µg/mL],MIC (Bacillus subtilis) [µg/mL],MIC [4] [µg/mL],MIC [5] [µg/mL],MIC (Enterococcus faecalis) [µg/mL],MIC [6] [µg/mL],MIC [7] [µg/mL],MIC [8] [µg/mL]
"CSc1ccc(N2C[C@H](Cn3cccn3)OC2=O)cc1 [Example 43, (5R)-3-(4-Methylthiophenyl)-5-(pyrazol-1-ylmethyl)oxazolidin-2-one]",72 to 73,–,–,–,–,–,–,–,–,–,–
"O=C1O[C@@H](Cn2ccnn2)CN1c1cc(F)c(C2=CCS(=O)(=O)CC2)c(F)c1 [Example 44a, (5R)-3-(3,5-Difluoro-4-(3,6-dihydro-1,1-dioxo-2H-thiopyran-4-yl)phenyl)-5-(1,2,3-triazol-1-ylmethyl)oxazolidin-2-one]",–,0.25,0.06,0.25,0.25,0.13,2,0.25,2,0.125,0.25
"CC(C)(C)c1ccc(N2C[C@H](Cn3ccnn3)OC2=O)cc1 [Example 41, (5R)-3-(4-t-Butylphenyl)-5-(1,2,3-triazol-1-ylmethyl)oxazolidin-2-one]",140 to 142,–,–,–,–,–,–,–,–,–,–
